These results are taken from patent US7569607B2, “Spider esters in personal care applications” (SurfaTech Corporation, priority 2005, dated 2009).

The nature of this data set: Sun Screen Solubility (appearance of sunscreen dissolved in ester). To be noted: for Age Appearance: after 48 hours at room temperature, 24 hours in refrigerator (37° F.) and 48 hours at room temperature; for Initial Appearance: solvent ester not named. The class given is physicochemical.

`CCCCC(CC)COC(=O)C=Cc1ccc(OC)cc1` (stereo not drawn) [Octylmethoxyciminate]: where the note is “1% weight sunscreen”, the “Age Appearance” value was “Clear” and the “Initial Appearance” value is “Clear”.
As to `COc1ccc(C(=O)c2ccccc2)c(O)c1` [Benzophenone 3], the “Age Appearance” value by setting is: (1% weight sunscreen) “Very Slight Haze^(2)”; (3% weight sunscreen) “Very Slight Haze^(2)”. Moreover, the “Initial Appearance” value reads like this: (1% weight sunscreen) “Clear”; (3% weight sunscreen) “Clear”.
